# Data taken from US20250161299A1, “ORAL PCLX-001 IN THE TREATMENT OF HUMAN CANCER” (PACYLEX PHARMACEUTICALS INC., priority 2022, published 2025).
# Where two headings read alike, the source gives them in different places.
# Test: Phase I trial of oral PCLX-001: plasma pharmacokinetics, noncompartmental analysis (Phoenix WinNonlin 8.3)
# Assay type: in vivo, human
# Conditions: human, plasma
# Description: The clinical trial is entitled “Phase I Trial of PCLX-001 in B-cell Non-Hodgkin Lymphoma and Advanced Solid Malignancies” and registered at clinicaltrials.gov as NCT04836195. It is a phase I dose-escalation study of oral PCLX-001, conducted in a multicenter, non-randomized, open-label, non-controlled design. The study is comprised of two parts: Part A (single-agent dose escalation) and Part B (single-agent expansion cohorts).
# Patients are to receive daily oral PCLX-001 on 28-day cycles, beginning with a starting dose of 20 mg.
# […] After dosing, the blood samples (volumes 3 mL) were serially collected into heparinized tubes from a right forearm butterfly cannula. All blood fluid specimens were frozen and later assayed using a validated UHPLC-MS detection method.
# Noncompartmental pharmacokinetic analysis was performed using Phoenix WinNonlin 8.3 using trapezoidal rule and linear up log down methodology. WinNonlin was allowed to pick optimal terminal phases.
# Nonparametric superposition was performed using Phoenix WinNonlin Nonparametric Superposition to predict steady state data based upon Day 1 data for each patient. It utilized the 8- and 24-hour time points for estimation of terminal phase for the purposes of this exercise. We simulated 20 mg daily oral dosing and simulations were conducted out to steady state. Results are show in FIGS. 5, 6, and 7.
# In the non-compartmental analysis, Phoenix WinNonlin 8.3 trapezoidal rule was used, with linear up log down method. This allowed WinNonlin to pick optimal terminal phase (WinNonlin will accept Rsq adjusted to >0.7). Additional analysis to assess adequate fie included visual inspection of data, and AUCextrap should be <15%.
# Phoenix WinNonlin 8.3 trapezoidal rule. Used linear up log down method. Allowed WinNonlin to pick optimal terminal phase (WinNonlin will accept Rsq adjusted >0.7).
# Other analysis to assess adequate fit. Visual inspection of data. AUCextrap should be <15%.
# [1] = oral, 140 mg, Table 4, not on Pantoprazole, 140 mg, N 1, Day 1
# [2] = oral, 140 mg, Table 5, Mean (CV), on Pantoprazole, 140 mg, N 2, Day 1
# [3] = oral, 140 mg, Table 5, Mean (CV), on Pantoprazole, 140 mg, N 2, Day 15
# [4] = po, 20 mg, Table 1A, Patient 115-002-001 (Patient 1), Day 1, 20 mg oral daily
# [5] = po, 20 mg, Table 1A, Patient 115-002-001 (Patient 1), Day 15, 20 mg oral daily
# [6] = po, 20 mg, Table 1A, Patient 115-002-002 (Patient 2), Day 15, 20 mg oral daily
# [7] = po, 20 mg, Table 1A, Patient 115-002-004 (Patient 3), Day 1, 20 mg oral daily
# [8] = po, 20 mg, Table 1A, Patient 115-002-004 (Patient 3), Day 15, 20 mg oral daily
smiles,measurement,setting,value
"Cc1c(NS(=O)(=O)c2c(Cl)cc(-c3ccnc(N4CCNCC4)c3)cc2Cl)c(CC(C)C)nn1C [PCLX-001, 2,6-dichloro-N-(3-isobutyl-1,5-dimethyl-1H-pyrazol-4-yl)-4-(2-(piperazin-1-yl)pyridin-4-yl)benzene sulfonamide]",Cmax,"oral, 70 mg, Table 4, not on Pantoprazole, 70 mg, N 1, Day 15",629 ng/mL
same,AUC(0-t),"oral, 70 mg, Table 4, not on Pantoprazole, 70 mg, N 1, Day 15, read-out: AUClast",7300 ng·h/mL
same,Tmax,"oral, 70 mg, Table 4, not on Pantoprazole, 70 mg, N 1, Day 15, read-out: Tmax",4 h
same,Cmax,"oral, 70 mg, Table 5, Mean (CV), on Pantoprazole, 70 mg, N 2, Day 1",283 ng/mL
same,AUC(0-t),"oral, 70 mg, Table 5, Mean (CV), on Pantoprazole, 70 mg, N 2, Day 1, read-out: AUClast",3260 ng·h/mL
same,Cmax,"oral, 70 mg, Table 5, Mean (CV), on Pantoprazole, 70 mg, N 2, Day 15",386 ng/mL
same,AUC(0-t),"oral, 70 mg, Table 5, Mean (CV), on Pantoprazole, 70 mg, N 2, Day 15, read-out: AUClast",5760 ng·h/mL
same,Tmax,"oral, 70 mg, Table 5, median (min, max), on Pantoprazole, 70 mg, N 2, Day 1, read-out: Tmax",6 h
same,Tmax,"oral, 70 mg, Table 5, median (min, max), on Pantoprazole, 70 mg, N 2, Day 15, read-out: Tmax",6 h
same,Cmax,"oral, 100 mg, Table 4, Mean (CV), not on Pantoprazole, 100 mg, N 2, Day 15",1340 ng/mL
same,Cmax,"oral, 100 mg, Table 4, Mean (CV), not on Pantoprazole, 100 mg, N 4, Day 1",1770 ng/mL
same,AUC(0-t),"oral, 100 mg, Table 4, Mean, not on Pantoprazole, 100 mg, N 2, Day 15, read-out: AUClast",17400 ng·h/mL
same,AUC(0-inf),"oral, 100 mg, Table 4, Mean, not on Pantoprazole, 100 mg, N 4, Day 1",18000 ng·h/mL
same,AUC(0-t),"oral, 100 mg, Table 4, Mean, not on Pantoprazole, 100 mg, N 4, Day 1, read-out: AUClast",15100 ng·h/mL
same,half-life,"oral, 100 mg, Table 4, Mean, not on Pantoprazole, 100 mg, N 4, Day 1, read-out: t½ (converted)",7.26 h
same,Tmax,"oral, 100 mg, Table 4, median (min, max), not on Pantoprazole, 100 mg, N 2, Day 15, read-out: Tmax",3 h
same,Tmax,"oral, 100 mg, Table 4, median (min, max), not on Pantoprazole, 100 mg, N 4, Day 1, read-out: Tmax",2 h
same,AUC(0-inf),"oral, 100 mg, Table 4, not on Pantoprazole, 100 mg, N 2, Day 15, value from N = 1 patient",19400 ng·h/mL
same,half-life,"oral, 100 mg, Table 4, not on Pantoprazole, 100 mg, N 2, Day 15, value from N = 1 patient, read-out: t½ (converted)",7.56 h
same,Cmax,"oral, 140 mg, Table 4, Mean (CV), not on Pantoprazole, 140 mg, N 1, Day 15",903 ng/mL
same,AUC(0-inf),"oral, 140 mg, Table 4, Mean, not on Pantoprazole, 140 mg, N 1, Day 15",10700 ng·h/mL
same,AUC(0-t),"oral, 140 mg, Table 4, Mean, not on Pantoprazole, 140 mg, N 1, Day 15, read-out: AUClast",7680 ng·h/mL
same,Tmax,"oral, 140 mg, Table 4, median (min, max), not on Pantoprazole, 140 mg, N 1, Day 15, read-out: Tmax",1.5 h
same,AUC(0-inf),[1],24200 ng·h/mL
same,Cmax,[1],2710 ng/mL
same,AUC(0-t),"oral, 140 mg, Table 4, not on Pantoprazole, 140 mg, N 1, Day 1, read-out: AUClast",21200 ng·h/mL
same,Tmax,"oral, 140 mg, Table 4, not on Pantoprazole, 140 mg, N 1, Day 1, read-out: Tmax",0.5 h
same,half-life,"oral, 140 mg, Table 4, not on Pantoprazole, 140 mg, N 1, Day 1, read-out: t½ (converted)",7.91 h
same,half-life,"oral, 140 mg, Table 4, not on Pantoprazole, 140 mg, N 1, Day 15, read-out: t½ (converted)",13.8 h
same,AUC(0-inf),[2],7830 ng·h/mL
same,Cmax,[2],1300 ng/mL
same,AUC(0-t),"oral, 140 mg, Table 5, Mean (CV), on Pantoprazole, 140 mg, N 2, Day 1, read-out: AUClast",7260 ng·h/mL
same,AUC(0-inf),[3],10700 ng·h/mL
same,Cmax,[3],903 ng/mL
same,AUC(0-t),"oral, 140 mg, Table 5, Mean (CV), on Pantoprazole, 140 mg, N 2, Day 15, read-out: AUClast",7680 ng·h/mL
same,half-life,"oral, 140 mg, Table 5, Mean, on Pantoprazole, 140 mg, N 2, Day 1, read-out: t½ (converted)",6.71 h
same,half-life,"oral, 140 mg, Table 5, Mean, on Pantoprazole, 140 mg, N 2, Day 15, read-out: t½ (converted)",13.8 h
same,Tmax,"oral, 140 mg, Table 5, median (min, max), on Pantoprazole, 140 mg, N 2, Day 1, read-out: Tmax",1 h
same,Tmax,"oral, 140 mg, Table 5, median (min, max), on Pantoprazole, 140 mg, N 2, Day 15, read-out: Tmax",1.5 h
same,Tmax,"oral, Example 2, all dose groups, Days 1 and 15, read-out: Tmax, median (range)",2 h
same,half-life,"oral, Example 2, range across the dose groups (20 to 140 mg), read-out: t1/2",5.02 to 17.4 h
same,AUC(0-inf),[4],2030 ng·h/mL
same,Cmax,[4],353 ng/mL
same,AUC(0-t),"po, 20 mg, Table 1A, Patient 115-002-001 (Patient 1), Day 1, 20 mg oral daily, read-out: AUClast or AUCtau",1710 ng·h/mL
same,half-life,"po, 20 mg, Table 1A, Patient 115-002-001 (Patient 1), Day 1, 20 mg oral daily, read-out: Half-life (converted)",8.54 h
same,Tmax,"po, 20 mg, Table 1A, Patient 115-002-001 (Patient 1), Day 1, 20 mg oral daily, read-out: Tmax",1 h
same,AUC(0-inf),[5],3500 ng·h/mL
same,Cmax,[5],479 ng/mL
same,AUC(0-t),"po, 20 mg, Table 1A, Patient 115-002-001 (Patient 1), Day 15, 20 mg oral daily, read-out: AUClast or AUCtau",2730 ng·h/mL
same,half-life,"po, 20 mg, Table 1A, Patient 115-002-001 (Patient 1), Day 15, 20 mg oral daily, read-out: Half-life (converted)",10.3 h
same,Tmax,"po, 20 mg, Table 1A, Patient 115-002-001 (Patient 1), Day 15, 20 mg oral daily, read-out: Tmax",1 h
same,Cmax,"po, 20 mg, Table 1A, Patient 115-002-002 (Patient 2), Day 1, 20 mg oral daily",127 ng/mL
same,AUC(0-t),"po, 20 mg, Table 1A, Patient 115-002-002 (Patient 2), Day 1, 20 mg oral daily, read-out: AUClast or AUCtau",1300 ng·h/mL
same,Tmax,"po, 20 mg, Table 1A, Patient 115-002-002 (Patient 2), Day 1, 20 mg oral daily, read-out: Tmax",4 h
same,AUC(0-inf),[6],2520 ng·h/mL
same,Cmax,[6],215 ng/mL
same,AUC(0-t),"po, 20 mg, Table 1A, Patient 115-002-002 (Patient 2), Day 15, 20 mg oral daily, read-out: AUClast or AUCtau",2010 ng·h/mL
same,half-life,"po, 20 mg, Table 1A, Patient 115-002-002 (Patient 2), Day 15, 20 mg oral daily, read-out: Half-life (converted)",~10 h
same,Tmax,"po, 20 mg, Table 1A, Patient 115-002-002 (Patient 2), Day 15, 20 mg oral daily, read-out: Tmax",2 h
same,AUC(0-inf),[7],1880 ng·h/mL
same,Cmax,[7],304 ng/mL
same,AUC(0-t),"po, 20 mg, Table 1A, Patient 115-002-004 (Patient 3), Day 1, 20 mg oral daily, read-out: AUClast or AUCtau",1780 ng·h/mL
same,half-life,"po, 20 mg, Table 1A, Patient 115-002-004 (Patient 3), Day 1, 20 mg oral daily, read-out: Half-life (converted)",5.61 h
same,Tmax,"po, 20 mg, Table 1A, Patient 115-002-004 (Patient 3), Day 1, 20 mg oral daily, read-out: Tmax",2 h
same,AUC(0-inf),[8],2150 ng·h/mL
same,Cmax,[8],295 ng/mL
same,AUC(0-t),"po, 20 mg, Table 1A, Patient 115-002-004 (Patient 3), Day 15, 20 mg oral daily, read-out: AUClast or AUCtau",1910 ng·h/mL
